Experimental data taken from ChEMBL document CHEMBL5614434, “A Lysosome-Targeting hNEU1 Inhibitor Treats Myocardial Infarction: A Potential Therapeutic Breakthrough” (J Med Chem, 2024).

How the values were obtained:
[1] = Drug localization in Mitochondria of rat H9c2 cells by confocal microscopy based analysis; assay type: ADME
[2] = Drug localization in lysosome of rat H9c2 cells by confocal microscopy based analysis; assay type: ADME, subcellular

Which Drug uptake [1] does the source give for `CCC(CC)O[C@@H]1C=C(C(=O)OCCN2CCOCC2)C[C@H](NC(=S)Nc2ccc3c(c2)C(=O)OC32c3ccc(O)cc3Oc3cc(O)ccc32)[C@H]1NC(C)=O` here?
The Drug uptake was “Active”.

What about the Drug uptake [2] of the same compound?
Its Drug uptake is “Active”.
